Each structure is given as a SMILES string.

A short description of series [1]: Surface charge (zeta potential) by particle size surface charge analyzer. It counts as physicochemical. The note with it: aqueous phase. Here is the method: The surface charge of the nanoparticle of Example 2 was measured using a particle size surface charge analyzer (Zetasizer Nano-ZS, […]). In addition, the surface charge of a pure indocyanine green solution was measured using the particle size surface charge analyzer.

Series [2] is described as follows: Optical stability under continuous 785 nm laser irradiation. It counts as physicochemical. The following applies: 30 minutes. On the procedure:
A slide glass on which the nanoparticle of Example 4 was spin coated thereon was prepared. A region of the slide glass was selected, and was continuously irradiated by 785 nm laser for 30 minutes.
FIGS. 14A to 14D are a single particle fluorescence images showing the optical stability of an up-conversion nanoparticle coated with indocyanine green.

`CC1(C)C(/C=C/C=C/C=C/C=C2\N(CCCCS(=O)(=O)O)c3ccc4ccccc4c3C2(C)C)=[N+](CCCCS(=O)(=O)[O-])c2ccc3ccccc3c21` [indocyanine green] yielded a surface charge in series [1] of −25.1 mV. Moreover, the “fluorescence signal of indocyanine green after laser irradiation (optical stability)” value in series [2] was “relatively much reduced or disappeared after 30 minutes”.

The values are drawn from patent US20180177899A1, “HYDROPHILIC PARTICLES, METHOD FOR PRODUCING THE SAME, AND CONTRAST AGENT UTILIZING SAME” (Korea Basic Science Institute, priority 2015, published 2018).
